{"source": "patent US20140024663A1", "about": "“ATB(0,+) AMINO ACID TRANSPORTER AS A DRUG TARGET FOR TREATMENT OF ESTROGEN RECEPTOR-POSITIVE BREAST CANCER” (GEORGIA HEALTH SCIENCES UNIVERSITY RESEARCH INSTITUTE, INC., priority 2012, published 2014)", "format_in_all_cases": "cell-based, human", "key": {"[1]": {"system": "ZR75.1 cells", "experiment": "QCM cell invasion assay", "conditions": "ZR75.1, α-MT 2.5 mM, p>0.05", "procedure": "(§1) Migration and invasion assays. The influence of α-MT on cell migration and invasion was determined with ZR75.1 cells. The migration of these cells toward fetal bovine serum was measured using the QCM™ cell migration assay kit (Millipore) according to manufacturer's instructions. Serum-starved ZR75.1 cells were allowed to migrate for 48 h in the presence/absence of α-MT (2.5 mM). After removing the cells on the top of the membrane filter, the inserts were stained with 0.1% crystal violet, washed and dried. The crystal violet dye retained on the filters, representing the cells that migrated to the underside of the membrane filter, was extracted with acetic acid. The absorbance of the extract was measured at 570 nm. Cell invasion assay was performed similarly using the QCM™ cell invasion assay kit (Millipore). The inserts used in this assay were coated with ECMATRIX™, representing extracellular matrix."}, "[2]": {"system": "MCF7 cells", "experiment": "Analysis of autophagy (LC3 localization, electron microscopy, autophagosomal proteolysis, GFP-LC3)", "conditions": "MCF7, α-MT 2.5 mM, 48 h", "procedure": "FIGS. 6A to 6C. Effects of SLC6A14 blockade with α-MT in breast cancer cells. In FIG. 6A, MCF10A (a non-malignant mammary epithelial cell line), MCF7 (an ER-positive breast cancer cell line), and MB231 (an ER-negative breast cancer cell line) cells were treated with or without 2.5 mM α-MT for 24, 48, or 72 h and then used for analysis of asparagine synthetase (ASNS) and CHOP mRNA levels. In FIG. 6B, MCF7, MB231 and MCF10A cells were treated with or without 2.5 mM α-MT for 48 h and then used for immunocytochemical analysis of the constitutively expressed LC-3. In FIG. 6C, MCF7 cells were treated with (“b” and “c”) or without (“a”) α-MT (2.5 mM) for 48 h and then used for electron microscopy. Arrows indicate sequestration of cytoplasm and organelles in pre-autophagosomes and autophagosome, and the asterisk indicates condensed chromatin. N, nucleus.\nFIGS. 7A and 7B. Induction of autophagy in MCF7 cells by α-MT. […] The concentrations of α-MT and 3-MA, when present, were 2.5 mM and 10 mM. The treatment time was 48 h. The extent of proteolysis was determined by the radioactivity present in the protein-free supernatant. […] In FIG. 7B, MCF7 cells were transfected with an GFP-LC3 expression plasmid, and 24 h later, the cells were treated with or without α-MT (2.5 mM) in the presence or absence of 3-MA (10 mM) for 48 h. At the end of the treatment, cells were fixed, and the percent of cells with punctate localization of the ectopically expressed GFP-LC3 was quantified. “a” represents compared to control; “b” represents compared to treatment with α-MT alone; and “c” represents compared to treatment with […]; *, p<0.001.\nAnalysis of autophagy. Autophagy was analyzed as described previously (Periyasamy-Thandavan et al., 2010, Autophagy; 6:19-35; and Samaddar et al., 2008, Mol Cancer Ther; 7:2977-2987) by monitoring the localization pattern of constitutively expressed LC3 as well as that of ectopically expressed GFP-LC3. In the case of the constitutively expressed LC3, cells were treated without or with α-MT, and then used for immunocytochemical analysis of LC3 localization pattern. For ectopically expressed LC3, cells were transfected with a GFP-LC3 expression plasmid. Briefly, cells were plated on a coverslip to reach ˜50% confluence and transfection of these cells was done with 1 μg of the plasmid using FuGENE transfection reagent (Roche, Nutley, N.J.). […] At the end of the treatment, cells were fixed with 4% paraformaldehyde and examined by fluorescence microscopy to count the number of cells with punctate GFP-LC3. Autophagosomal proteolysis was quantified as described previously (Periyasamy-Thandavan et al., 2010, Autophagy; 6:19-35). […]"}, "[3]": {"system": "ZR75.1 cells", "experiment": "QCM cell migration assay", "conditions": "ZR75.1, α-MT 2.5 mM, 48 h, p>0.05", "procedure": "as §1"}}}
{"smiles": "CC(N)(Cc1c[nH]c2ccccc12)C(=O)O", "note": "(racemic) [α-MT, α-methyl-DL-tryptophan]", "values": [{"measurement": "invasion in α-MT-treated cells", "setting": "[1]", "value": "95±14 % of control"}, {"measurement": "autophagosomal proteolysis of 14C-labeled proteins", "setting": "[2]", "value": "increased proteolysis"}, {"measurement": "autophagy (punctate localization of constitutively expressed LC3, autophagosomes in electron microscopy)", "setting": "[2]", "value": "induced autophagy"}, {"measurement": "migration in α-MT-treated cells", "setting": "[3]", "value": "87±7 % of control"}]}
